Experimental findings from patent US12458602B2, “Realizing the nano-amorphous state of materials inside nano-porous templates” (The Chinese University of Hong Kong, priority 2021, dated 2025) are described below.

This series is described as follows: In-vitro dissolution test in deionized water. Particulars: room temperature. The class given is physicochemical. Here is the method: The total drug dose is about 50 mg dissolved in 1 L of deionized water at the room temperature. In order to obtain the concentration versus time plot, a series of samples (3 mL) are withdrawn at predetermined time points, and the same amount of fresh media is added back to maintain a constant volume (1 L). These withdrawn samples are filtered by 0.22 μm MCE filters, and their concentrations are then determined with a UV spectrophotometer.

Each structure is given as a SMILES string.

Turning to `CC(C(=O)O)c1ccc(-c2ccccc2)c(F)c1` (centres unmarked) [Flurbiprofen crystal, Flurbiprofen], the “drug released in 6 hours” value amounted to 9.5%.

In the case of `CCC(COC(=O)c1cc(OC)c(OC)c(OC)c1)(c1ccccc1)N(C)C` (centres unmarked) [Trimebutine crystal, Trimebutine], the “drug released in 6 hours” value is recorded as 1.18%.
